Assay results taken from patent US10112968B2, “Inhibitors of protein methyltransferase DOT1L and methods of use thereof” (Epizyme, Inc., priority 2012, dated 2018).
“Also recorded” adds a separate entry of the source. One block for each molecule: values may come before it.

How the values were obtained:
MV4-11 xenograft tumors = assay: MV4-11 nude rat subcutaneous xenograft model of MLL-rearranged leukemia; format: in vivo
Method: Four groups of 10 (Groups 1, 2, 3, and 4 female RH nu/nu rats (7 weeks old, weighing 120-160 g) bearing MV4-11 xenograft tumors of sizes ranging from 300-600 mm^3 were implanted with a catheter in the femoral vein). The infusion flow rate was set at 1,500 μL/hour/kg and was adjusted to the most recent mean body weight of each treatment group (as an example, the infusion flow rate was 300 μL/hour for a group of rats having a mean body weight of 200 g). Group 1 received vehicle via a 21-day continuous IV infusion. Group 2 received 21-day continuous IV infusion of the test substance at 35 mg/kg/day. Group 3 received a daily 8-hour continuous IV infusion of the test substance at 67 mg/kg/day for 21 consecutive days. Between two IV infusions of the test substance, the rats were kept under IV infusion with NaCl 0.9% solution. Group 4 received a 21-day continuous IV infusion of the test substance at 70 mg/kg/day. Syringes used for the IV infusion were replaced every day.
The rats were terminated when the subcutaneous tumor reached a maximum volume of 9,000 mm^3 or at a maximum of 55 days after tumor cells injection.

[1] = Pharmacokinetic half-life in systemic circulation, rats; format: in vivo
[2] = Pharmacokinetic half-life in systemic circulation, dogs; format: in vivo
H3K79 methylation = H3K79 methylation in treated leukemia cells; format: cell-based; details: treatment of leukemia cells
[3] = test system: MLL-rearranged leukemia cells; assay: Cell killing in MLL-rearranged leukemia cells; format: cell-based
[4] = test system: leukemia cell lines without the chromosomal rearrangement of the MLL gene; assay: Antiproliferative effect on leukemia cell lines without MLL rearrangement; format: cell-based
[5] = test system: other histone methyl marks; assay: Effect on other histone methyl marks in cells; format: cell-based
DOT1L [6] = target: T1, DOT1L (Homo sapiens (Human), UniProt Q8TEK3); assay: DOT1L enzymatic activity radiometric assay (methyl transfer from SAM to chicken erythrocyte nucleosomes); details: for IC50: read-out: DOT1L IC50; for alpha: global fit
T1 sequence (Q8TEK3 whole entry): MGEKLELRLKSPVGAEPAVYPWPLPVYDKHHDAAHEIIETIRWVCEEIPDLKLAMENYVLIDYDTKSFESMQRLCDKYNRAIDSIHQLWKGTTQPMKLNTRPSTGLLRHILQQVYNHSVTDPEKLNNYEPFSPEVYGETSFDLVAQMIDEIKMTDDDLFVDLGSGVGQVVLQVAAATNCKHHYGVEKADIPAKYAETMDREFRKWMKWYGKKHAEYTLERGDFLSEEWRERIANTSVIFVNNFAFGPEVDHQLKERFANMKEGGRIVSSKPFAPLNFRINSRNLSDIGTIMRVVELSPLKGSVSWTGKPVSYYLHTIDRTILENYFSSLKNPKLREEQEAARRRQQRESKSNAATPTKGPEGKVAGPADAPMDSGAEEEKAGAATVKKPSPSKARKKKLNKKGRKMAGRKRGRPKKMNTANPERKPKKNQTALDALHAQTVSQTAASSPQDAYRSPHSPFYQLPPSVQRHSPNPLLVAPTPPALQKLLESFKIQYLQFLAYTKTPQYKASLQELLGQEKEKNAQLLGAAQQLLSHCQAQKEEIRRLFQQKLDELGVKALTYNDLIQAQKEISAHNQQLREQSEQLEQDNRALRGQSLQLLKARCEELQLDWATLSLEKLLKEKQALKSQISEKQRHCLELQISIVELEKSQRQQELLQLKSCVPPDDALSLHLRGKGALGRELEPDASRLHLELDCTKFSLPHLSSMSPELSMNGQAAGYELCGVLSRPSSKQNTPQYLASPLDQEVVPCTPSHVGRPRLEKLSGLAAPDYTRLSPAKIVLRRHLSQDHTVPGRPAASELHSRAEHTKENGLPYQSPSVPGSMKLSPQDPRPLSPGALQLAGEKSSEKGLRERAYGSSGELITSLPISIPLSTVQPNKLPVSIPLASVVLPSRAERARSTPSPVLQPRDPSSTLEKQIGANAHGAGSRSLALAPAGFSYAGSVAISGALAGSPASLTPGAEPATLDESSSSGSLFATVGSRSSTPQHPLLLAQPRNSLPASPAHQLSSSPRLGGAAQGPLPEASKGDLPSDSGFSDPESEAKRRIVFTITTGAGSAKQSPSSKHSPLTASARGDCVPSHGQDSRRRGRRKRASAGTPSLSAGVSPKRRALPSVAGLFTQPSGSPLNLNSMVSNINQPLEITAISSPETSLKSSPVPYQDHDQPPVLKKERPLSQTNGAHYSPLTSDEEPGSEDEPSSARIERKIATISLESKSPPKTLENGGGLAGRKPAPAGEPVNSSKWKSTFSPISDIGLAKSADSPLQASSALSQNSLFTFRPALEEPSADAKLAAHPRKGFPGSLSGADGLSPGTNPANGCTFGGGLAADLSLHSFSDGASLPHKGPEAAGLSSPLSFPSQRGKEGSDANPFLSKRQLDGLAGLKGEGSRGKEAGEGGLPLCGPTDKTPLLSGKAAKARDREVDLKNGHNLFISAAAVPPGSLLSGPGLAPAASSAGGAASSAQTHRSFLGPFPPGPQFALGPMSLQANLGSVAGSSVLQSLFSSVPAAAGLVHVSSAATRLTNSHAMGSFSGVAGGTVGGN

DOT1L [7] = target: T1, DOT1L; assay: Ligand association and dissociation rate constants by surface plasmon resonance (SPR); format: binding; details: Kd calculated as koff/kon
MV4-11 cells = assay: Cell proliferation assay (Guava Viacount, 14 days); format: cell-based; details: Homo sapiens, 336 h, day 14, read-out: Cellular IC50 Proliferation
H3K79me2 in MV4-11 cells = assay: H3K79me2 quantitative ELISA; details: Homo sapiens, MV4-11, 96 h, read-out: Cellular IC50 H3K79 Methylation
[8] = test system: HOXA9 mRNA in MV4-11 cells; assay: Quantitative real-time PCR analysis of HOXA9 message; details: Homo sapiens, MV4-11, 144 h, read-out: Cellular IC50 HOXA9 mRNA
MLL-rearranged leukemia = assay: Aggressive, disseminated mouse model of MLL-rearranged leukemia; format: in vivo; details: as previously described

Compound: CC(C)N(C[C@H]1O[C@@H](n2cnc3c(N)ncnc32)[C@H](O)[C@@H]1O)[C@H]1C[C@@H](CCc2nc3cc(C(C)(C)C)ccc3[nH]2)C1 [Compound A2, (2R,3R,4S,5R)-2-(6-amino-9H-purin-9-yl)-5-((((1r,3S)-3-(2-(5-(tert-butyl)-1H-benzo[d]imidazol-2-yl)ethyl)cyclobutyl)(isopropyl)amino)methyl)tetrahydrofuran-3,4-diol]
anti-tumor activity (MV4-11 xenograft tumors; continuous intravenous infusion for 21 days, FIG. 1): dose-dependent anti-tumor activity; also recorded: complete and sustained tumor regression
time with no regrowth after the cessation of treatment (MV4-11 xenograft tumors; highest dose (70 mg/kg/day)): up to 32 days
tumor regressions (MV4-11 xenograft tumors; highest dose (70 mg/kg/day), 21-day continuous IV infusion): complete tumor regressions
weight loss or toxicity during efficacy study (MV4-11 xenograft tumors; rats): No significant weight loss or obvious toxicity
effective pharmacokinetic half-life in systemic circulation [1]: 15 min
effective pharmacokinetic half-life in systemic circulation [2]: 90 min
H3K79 methylation (H3K79 methylation): concentration- and time-dependent diminution
cell killing [3]: selective, apoptotic cell killing
impact on non-rearranged cells [4]: minimal impact
effect on other histone methyl marks / methylation status of other histone sites [5]: without effect

Compound: CC(C)N(C[C@H]1O[C@@H](n2cnc3c(N)ncnc32)[C@H](O)[C@@H]1O)[C@H]1C[C@@H](CCc2nc3cc(Cl)c(C(F)(F)F)cc3[nH]2)C1 [Compound A5, (2R,3R,4S,5R)-2-(6-amino-9H-purin-9-yl)-5-((((1r,3S)-3-(2-(5-chloro-6-(trifluoromethyl)-1H-benzo[d]imidazol-2-yl)ethyl)cyclobutyl)(isopropyl)amino)methyl)tetrahydrofuran-3,4-diol]
IC50 (DOT1L [6]): 0.59 nM

Compound: CC(C)N(C[C@H]1O[C@@H](n2ccc3c(N)ncnc32)[C@H](O)[C@@H]1O)[C@H]1C[C@H](CCc2nc3cc(C(C)(C)C)ccc3[nH]2)C1 [Compound A75, (2R,3R,4S,5R)-2-(4-amino-7H-pyrrolo[2,3-d]pyrimidin-7-yl)-5-((((1s,3R)-3-(2-(5-(tert-butyl)-1H-benzo[d]imidazol-2-yl)ethyl)cyclobutyl)(isopropyl)amino)methyl)tetrahydrofuran-3,4-diol]
IC50 (DOT1L [6]): 0.59 nM

Compound: CN(C[C@H]1O[C@@H](n2ccc3c(N)ncnc32)[C@H](O)[C@@H]1O)[C@H]1C[C@@H](CCc2nc3cc(C(C)(C)C)ccc3[nH]2)C1 [Compound A86, (2R,3R,4S,5R)-2-(4-amino-7H-pyrrolo[2,3-d]pyrimidin-7-yl)-5-((((1r,3S)-3-(2-(5-(tert-butyl)-1H-benzo[d]imidazol-2-yl)ethyl)cyclobutyl)(methyl)amino)methyl)tetrahydrofuran-3,4-diol]
IC50 (DOT1L [6]): 0.62 nM

Compound: CC(C)N(C[C@H]1O[C@@H](n2ccc3c(N)ncnc32)[C@H](O)[C@@H]1O)[C@H]1C[C@@H](CCc2nc3cc(OC(F)(F)F)ccc3[nH]2)C1 [Compound A87, (2R,3R,4S,5R)-2-(4-amino-7H-pyrrolo[2,3-d]pyrimidin-7-yl)-5-((isopropyl((1r,3S)-3-(2-(5-(trifluoromethoxy)-1H-benzo[d]imidazol-2-yl)ethyl)cyclobutyl)amino)methyl)tetrahydrofuran-3,4-diol]
IC50 (DOT1L [6]): 0.8 nM

Ki (DOT1L [6]): 20000 nM
Compound: CN(CCNC(=O)OCC1c2ccccc2-c2ccccc21)C[C@H]1OC(n2cnc3c(N)ncnc32)[C@H](O)[C@@H]1O (some centres unmarked) [Compound C64]

Kd (DOT1L [7]): 167 ± 100 nM
IC50 (MV4-11 cells): > 50000 nM
IC50 (H3K79me2 in MV4-11 cells): 28000 ± 25000 nM
IC50 [8]: > 50000 nM
Ki (DOT1L [6]): 845 nM
Compound: CN(CCNC(=O)Nc1ccc(C(C)(C)C)cc1)C[C@H]1O[C@@H](n2cnc3c(N)ncnc32)[C@H](O)[C@@H]1O [Compound C94]

Compound: CC(C)N(CCCNC(=O)Nc1ccc(C(C)(C)C)cc1)C[C@H]1OC(n2ccc3c(N)ncnc32)C(O)[C@@H]1O (some centres unmarked) [Compound D16]
IC50 (MV4-11 cells): 146 ± 72 nM
survival (MLL-rearranged leukemia): statistically significant survival advantage
IC50 (H3K79me2 in MV4-11 cells): 5 ± 3 nM
IC50 [8]: 830 ± 170 nM
inhibition modality with respect to SAM (DOT1L [6]): competitive inhibitor
inhibition modality with respect to nucleosome (DOT1L [6]): noncompetitive inhibitor
alpha (DOT1L [6]; FIG. 2A, varied SAM concentration): 10±6
alpha (DOT1L [6]; FIG. 2B, varied oligonucleosome concentration): 0.5±0.2
ΔΔGbinding (DOT1L [6]; between C118 and D16, at 25° C.): 2.4 to 2.9 kcal/mol
